{
  "source": "patent US10260097B2",
  "about": "“Method of using a gene expression profile to determine cancer responsiveness to an anti-angiogenic agent” (Almac Diagnostics Limited, priority 2011, dated 2019)",
  "origin": "cited, not measured here",
  "key": {"[1]": {"test_system": "most cancers", "settings": "bevacizumab added to cytotoxic chemotherapy"}, "[2]": {"test_system": "renal cancer patients", "settings": "renal cancer patients receiving bevacizumab monotherapy"}, "[3]": {"test_system": "ovarian cancer patients", "settings": "ovarian cancer patients receiving bevacizumab monotherapy"}, "[4]": {"test_system": "rectal cancer patients", "settings": "rectal cancer patients receiving bevacizumab monotherapy"}},
  "data": [
    {"substance": "bevacizumab", "values": [
      {"measurement": "overall survival (OS) benefit", "setting": "[1]", "result": "no overall survival (OS) benefit"},
      {"measurement": "patients showing partial regression", "setting": "[2]", "result": 10, "unit": "%"},
      {"measurement": "patients showing partial regression", "setting": "[3]", "result": 21, "unit": "%"},
      {"measurement": "patients showing partial regression", "setting": "[4]", "result": 33, "unit": "%"}
    ]}
  ]
}
